Assay: Brightness B = Φ * εmax
Assay type: physicochemical
Settings: versus chelate of unsubstituted ligand (Table 7)
Source text: • “Brightness (B)” refers to the amount of radiation emitted by a chromophore or dye. In the case of one-photon absorption, B is defined as the product of the emission quantum yield (Φ) by the molar absorption coefficient (ε), i.e., B=ε·Φ, at a given excitation wavelength. In the case of two-photon absorption, B is defined as the product of the emission quantum yield (Φ) by the cross section (σ), i.e., […], at a given excitation wavelength. • “Carboxylate ester” refers to an ester of a molecule, said molecule comprising at least one carboxylic acid function (—COOH), wherein the ester is formed by esterification of at least one carboxylic acid function of the molecule. Preferred carboxylic esters are methyl esters. “Mono-ester”, “di-ester” and “tri-ester” respectively refers to esters wherein exactly one, two and three carboxylic acid functions have been esterified. • “Carboxylate salt” refers to a salt of a molecule, said molecule comprising at least one carboxylic acid function (—COOH), wherein the salt is formed by deprotonation of at least one carboxylic acid function of the molecule. Preferred carboxylic salts are potassium or sodium salts, more preferably potassium salts. […]

| SMILES | increase in brightness of europium chelate on substitution of picolinate arms by chromophore |
| --- | --- |
| COCCOCCOCCOc1ccc(C#Cc2cc(CN3CCN(CC(=O)[O-])CCN(Cc4cc(C#Cc5ccc(OCCOCCOCCOC)cc5)cc(C(=O)[O-])n4)Cc4cccc(n4)C3)nc(C(=O)[O-])c2)cc1.[K+].[K+].[K+] [Complex S4, potassium 6,6′-((6-(carboxylatomethyl)-3,6,9-triaza-1(2,6)-pyridinacyclodecaphane-3,9-diyl)bis(methylene)) bis(4-((4-(2-(2-(2-methoxyethoxy)ethoxy)ethoxy)phenyl)ethynyl) picolinate)] | about 3 fold |
| COCCOCCOCCOc1ccc(C#Cc2cc(CN3CCN(CC(=O)[O-])Cc4cccc(n4)CN(Cc4cc(C#Cc5ccc(OCCOCCOCCOC)cc5)cc(C(=O)[O-])n4)CC3)nc(C(=O)[O-])c2)cc1.[K+].[K+].[K+] [Complex S1, potassium 6,6′-((9-(carboxylatomethyl)-3,6,9-triaza-1(2,6)-pyridinacyclodecaphane-3,6-diyl)bis(methylene)) bis(4-((4-(2-(2-(2-methoxyethoxy)ethoxy)ethoxy)phenyl)ethynyl) picolinate)] | about 4 fold |
